Where “and” joins values, the source holds several entries; their conditions need not be identical. Identical values can stand only once. Like-named read-outs stand apart in the source and are kept apart here.

The results in this text go back to article PMC8881610 (Nature Communications, 2022).

Test [1] concerns the target T1, GIPR (Homo sapiens, UniProt P48546).
T1 sequence (P48546 22-466): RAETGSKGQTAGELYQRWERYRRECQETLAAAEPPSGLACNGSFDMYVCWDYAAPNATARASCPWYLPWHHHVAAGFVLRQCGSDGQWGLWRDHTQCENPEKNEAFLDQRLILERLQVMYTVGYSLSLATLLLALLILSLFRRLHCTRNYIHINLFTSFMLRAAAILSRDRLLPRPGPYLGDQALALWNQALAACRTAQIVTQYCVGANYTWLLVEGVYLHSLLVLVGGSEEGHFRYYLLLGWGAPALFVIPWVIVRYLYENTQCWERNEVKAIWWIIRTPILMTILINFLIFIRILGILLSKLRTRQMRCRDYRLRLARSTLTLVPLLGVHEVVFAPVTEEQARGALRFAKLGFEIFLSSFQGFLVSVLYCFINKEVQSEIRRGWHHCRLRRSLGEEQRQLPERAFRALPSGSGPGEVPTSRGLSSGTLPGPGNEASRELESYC
Nature of the test: Whole-cell binding assay, competition with 125I-GIP1-42. More on the design: acylated tirzepatide to the full-length or modified; Flag; expressed in transfected cells. Here is the method: (§1) Human embryonic kidney 293 cells containing SV40 large T-antigen (HEK293T) were cultured in DMEM (Gibco) supplemented with 10% (v/v) fetal bovine serum (FBS, Gibco), 1 mM sodium pyruvate (Gibco) and 100 units/mL penicillin and 100 μg/mL streptomycin at 37 °C in 5% CO2. Chinese hamster ovary (CHO-K1) cells were cultured in F-12 (Gibco) containing 10% FBS, 100 units/mL penicillin and 100 μg/mL streptomycin at 37 °C in 5% CO2. For cAMP and receptor expression assays, HEK293T cells were seeded into 6-well cell culture plates at a density of 7 × 10^5 cells per well. After overnight incubation, cells were transfected with GIPR, GLP-1R or GCGR construct using Lipofectamine 2000 or Lipofectamine 3000 transfection reagent (Invitrogen). For whole-cell binding assay, CHO-K1 cells were seeded into 96-well fibronectin-treated cell culture plates at a density of 3 × 10^4 cells per well. After overnight incubation, cells were transfected with GIPR, GLP-1R or GCGR construct using Lipofectamine 2000 transfection reagent (Invitrogen). Following 24 h culturing, the transfected cells were ready for use.
For GIPR, CHO-K1 cells were cultured in F-12 medium with 10% FBS and seeded at a density of 30,000 cells/well in Isoplate-96 plates (PerkinElmer). The WT or mutant GIPR was transiently transfected using Lipofectamine 2000 transfection reagent as previous described. They were then washed twice using F-12 with 0.1% BSA or 0.1% casein, 33 mM HEPES, and incubated for 2 h at 37 °C. […] Following incubation, cells were washed three times with ice-cold PBS and lysed by addition of 50 μL lysis buffer (PBS supplemented with 20 mM Tris-HCl, 1% Triton X-100, pH 7.4). Fifty µL of scintillation cocktail (OptiPhase SuperMix, PerkinElmer) were added and the plates were subsequently counted for radioactivity (counts per minute, CPM) in a MicroBeta^2 microplate counter (PerkinElmer).

The target in test [2] is T1, GIPR. Nature of the test: cAMP accumulation assay (LANCE Ultra cAMP kit), GIPR WT, mutant or modified constructs. More on the design: acylated tirzepatide to the full-length or modified; Flag; expressed in transfected cells; host or cells: HEK293T. The settings on record: HEK293T; for Emax: HEK-293T. Format: cell-based. Here is the method: as §1
A BRIL fusion protein was added at the N-terminal of the ECD with a TEV protease site and 2GSA linker between them. C-terminal 45 amino acids (Q422-C466) of the receptor were truncated. LgBiT was added at the end of helix 8 with a 15-amino acid (15AA) polypeptide linker in between, followed by a TEV protease cleavage site and an OMBP-MBP tag. […] The construct and various mutants of human GIPR were cloned into pcDNA3.1 vector for cAMP accumulation and whole-cell binding assays.
For GIPR, GLP-1R and GCGR, multi-targeting agonist stimulated cAMP accumulation was measured by a LANCE Ultra cAMP kit (PerkinElmer). After 24 h culture, the transfected cells were seeded into 384-well microtiter plates at a density of 3,000 cells per well in HBSS supplemented with 5 mM HEPES, 0.1% (w/v) BSA or 0.1% (w/v) casein and 0.5 mM 3-isobutyl-1-methylxanthine. The cells were stimulated with different concentrations of peptide agonists for 40 min at RT. Eu-cAMP tracer and ULight^TM-anti-cAMP were then diluted by cAMP detection buffer and added to the plates separately to terminate the reaction. Plates were incubated at RT for 1 h and the fluorescence intensity measured at 620 nm and […] by an EnVision multilabel plate reader (PerkinElmer).
On the technique in general: Changes in cAMP serve as a functional read-out for many G protein-coupled receptors.

The next test addresses GLP-1R (Homo sapiens, UniProt P43220). Nature of the test: Whole-cell binding assay, competition with 125I-GLP-1(7-36)NH2. More on the design: Flag; expressed in transfected cells. Here is the method: as §1
(§2) For GLP-1R and GCGR, CHO-K1 cells (30,000 cells/well) were seeded into Isoplate-96 plates and incubated for 24 h at 37 °C in 5% CO2. The WT or mutant constructs were transiently transfected using Lipofectamine 2000 transfection reagent as previous described. They were then washed twice using F-12 with 0.1% BSA or 0.1% casein, 33 mM HEPES, and incubated for 2 h at 37 °C. […] Cells were washed three times with ice-cold PBS and lysed in PBS with 1% Triton X-100, 20 mM Tris-HCl. After addition of scintillation cocktail (PerkinElmer), radioactivity (CPM) was counted on a MicroBeta^2 microplate counter (PerkinElmer). Data were normalized to the WT response and analyzed using three-parameter logistic equation.

Another test concerns the target GCGR (Homo sapiens, UniProt P47871). Nature of the test: Whole-cell binding assay, competition with 125I-GCG. More on the design: V5 (C); 6×His (C); expressed in transfected cells; host or cells: CHO-K1. How it is done:
as §1, §2

Sequence of GCGR (P47871 26-477): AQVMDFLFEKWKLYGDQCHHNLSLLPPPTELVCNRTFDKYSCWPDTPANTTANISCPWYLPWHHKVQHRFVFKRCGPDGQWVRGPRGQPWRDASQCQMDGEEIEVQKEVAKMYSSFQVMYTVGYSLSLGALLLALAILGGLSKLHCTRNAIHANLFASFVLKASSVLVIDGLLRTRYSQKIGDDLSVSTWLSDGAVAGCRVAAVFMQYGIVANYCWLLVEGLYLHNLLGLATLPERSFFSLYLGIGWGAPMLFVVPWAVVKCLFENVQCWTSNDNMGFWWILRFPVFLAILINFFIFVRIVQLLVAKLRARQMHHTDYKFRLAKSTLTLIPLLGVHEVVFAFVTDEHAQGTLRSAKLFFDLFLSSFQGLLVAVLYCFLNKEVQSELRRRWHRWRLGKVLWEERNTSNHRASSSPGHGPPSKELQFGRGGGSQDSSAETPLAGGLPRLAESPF
Sequence of GLP-1R (P43220 24-463): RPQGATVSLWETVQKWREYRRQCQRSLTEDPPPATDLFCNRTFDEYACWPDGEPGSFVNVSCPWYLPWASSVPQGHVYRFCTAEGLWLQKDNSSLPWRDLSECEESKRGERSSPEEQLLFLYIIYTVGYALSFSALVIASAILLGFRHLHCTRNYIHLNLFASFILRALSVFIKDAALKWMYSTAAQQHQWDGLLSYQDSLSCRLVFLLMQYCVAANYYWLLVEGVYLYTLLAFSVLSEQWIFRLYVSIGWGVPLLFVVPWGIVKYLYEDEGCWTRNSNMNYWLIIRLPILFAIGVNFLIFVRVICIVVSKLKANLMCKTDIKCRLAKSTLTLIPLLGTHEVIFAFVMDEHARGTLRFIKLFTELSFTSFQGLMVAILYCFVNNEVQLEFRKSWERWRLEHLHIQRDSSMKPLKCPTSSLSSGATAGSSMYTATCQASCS

As a reminder, the Emax is the greatest response seen or fitted, relative to the assay's reference. Regarding `CCCCCCCCCCCCCCCC(=O)N[C@@H](CCC(=O)NCCCC[C@H](NC(=O)[C@H](CC(=O)O)NC(=O)[C@H](CO)NC(=O)[C@@H](NC(=O)[C@H](Cc1ccccc1)NC(=O)[C@@H](NC(=O)CNC(=O)[C@H](CCC(N)=O)NC(=O)C(C)(C)NC(=O)[C@@H](N)Cc1c[nH]cn1)[C@@H](C)O)[C@@H](C)O)C(=O)N[C@@H](CO)C(=O)N[C@@H](CCCCN)C(=O)N[C@@H](Cc1ccc(O)cc1)C(=O)N[C@@H](CC(C)C)C(=O)N[C@@H](CC(=O)O)C(=O)N[C@@H](CCC(=O)O)C(=O)N[C@@H](CCCNC(=N)N)C(=O)N[C@@H](C)C(=O)N[C@@H](C)C(=O)N[C@@H](CCC(N)=O)C(=O)N[C@@H](CC(=O)O)C(=O)N[C@@H](Cc1ccccc1)C(=O)N[C@H](C(=O)N[C@@H](CCC(N)=O)C(=O)N[C@@H](Cc1c[nH]c2ccccc12)C(=O)N[C@@H](CC(C)C)C(=O)N[C@@H](CC(C)C)C(=O)N[C@@H](CC(=O)O)C(=O)NCC(=O)NCC(=O)N1CCC[C@H]1C(=O)N[C@@H](CO)C(=O)N[C@@H](CO)C(=O)NCC(=O)N[C@@H](C)C(=O)N1CCC[C@H]1C(=O)N1CCC[C@H]1C(=O)N1CCC[C@H]1C(=O)N[C@@H](CO)C(N)=O)C(C)C)C(=O)O` [Peptide 20], the IC50 was 6.61 nM at GIPR [1] (Fig. 7c receptor binding profile, n = 3 in duplicate, SEM, read-out: GIPR (pIC50 ± S.E.M.) (converted)); 13.2 nM on GIPR [1] (GIPR WT, 0.1% BSA, CHO-K1, read-out: Binding pIC50 (converted)); 3.39 nM on GIPR [1] (GIPR WT, 0.1% casein, CHO-K1, read-out: Binding pIC50 (converted)); 18.2 nM and 10.7 nM on GIPR [1] (GIPR WT, CHO-K1, read-out: binding pIC50 (converted)); 3.39 nM on GLP-1R (Fig. 7c receptor binding profile, n = 3 in duplicate, SEM, read-out: GLP-1R (pIC50 ± S.E.M.) (converted)); 6.17 nM on GLP-1R (GLP-1R WT, CHO-K1, read-out: binding pIC50 (converted)). Further, the IC50 is 107 nM at GCGR (Fig. 7c receptor binding profile, n = 3 in duplicate, SEM, read-out: GCGR (pIC50 ± S.E.M.) (converted)); 55 nM on GCGR (GCGR WT, 0.1% BSA, CHO-K1, read-out: Binding pIC50 (converted)); 16.6 nM on GCGR (GCGR WT, 0.1% casein, CHO-K1, read-out: Binding pIC50 (converted)); 89.1 nM at GCGR (GCGR WT, CHO-K1, read-out: binding pIC50 (converted)). Further, the “binding Span” value is given as 99.92 ± 6.37 at GIPR [1] (GIPR WT, 0.1% casein, CHO-K1); 97.43 ± 3.89 % WT on GIPR [1] (GIPR WT, CHO-K1); 85.25 ± 8.33 on GLP-1R (GLP-1R WT, 0.1% casein, CHO-K1); 99.44 ± 2.88 % WT on GLP-1R (GLP-1R WT, CHO-K1); 99.29 ± 3.10 % WT at GCGR (GCGR WT, CHO-K1). Further, the EC50 is 0.0135 nM on GIPR [2] (GIPR WT, read-out: cAMP pEC50 (converted)) and 0.00447 nM on GIPR [2] (GIPR, n = 4, SEM, read-out: cAMP pEC50 ± S.E.M. (converted)). The Emax at GIPR [2] (GIPR WT, 0.1% BSA, read-out: cAMP accumulation Emax) is 99.9 ± 1.18%; on GIPR [2] (GIPR WT, 0.1% casein, read-out: cAMP accumulation Emax), 100 ± 1.51%; on GIPR [2] (GIPR WT, read-out: cAMP Emax) it was 99.2 ± 1.85%; on GIPR [2] (GIPR, n = 4, SEM, read-out: cAMP Emax ± S.E.M.), 100 ± 1.48%.
